The record followed here is patent publication US10363284B2, “β-hairpin peptidomimetics” (POLYPHOR AG, priority 2012, dated 2019).

Positions of bridges follow the written chain, without caps; N, C: chain ends. Non-standard residues stand in square brackets, D forms with d. Residues, ends and D or L forms follow the SMILES beside them. dLys(iPr) = CC(C)NCCCC[C@@H](N)C(=O)O; Lys(iPr) = CC(C)NCCCC[C@H](N)C(=O)O; Orn(iPr) = CC(C)NCCC[C@H](N)C(=O)O; Ac3c = NC1(C(=O)O)CC1

A short description of series [1]: Plasma stability, human plasma. The format is in vitro ADME. Conditions: for human pl. T1/2: 37° C.; for remaining at 24 h, 10 μM: 1440 min, read-out: human pl. cpd left at 1440 min. How it is done:
The stability of the peptides in human and mouse plasma was determined by applying the following method: 346.5 μL/deep well of freshly thawed human plasma (Basler Blutspende-dienst) and mouse plasma (Harlan Sera-Lab, UK), respectively, were spiked with 3.5 μL/well of compound dissolved in DMSO/H2O (90/10 [v/v], 1 mM, triplicate) and incubated at 37° C. At t=0, 15, 30, 60, 120, 240 and 1440 min aliquots of 50 μL were transferred to filtration plate wells containing 150 μL/well of 2% formic acid in acetonitrile. Following shaking for 2 min the occurred suspensions were filtrated by vacuum. 100 μL of each filtrate were transferred to a propylene microtiter plate and dried under N2. The residual solids were reconstituted by adding 100 μL/well of water/acetonitrile, 95/5 (v/v)+0.2% formic acid and analyzed by LC/MS as follows: Column: Waters, XBridge C18, mobile phases: (A) water+0.1% formic acid and (B) acetonitrile/water, 95/5 (v/v)+0.1% formic acid, gradient: 5%-100% (B) in 1.8 minutes, electrospray ionization, MRM detection (triple quadrupole). The peak areas were determined and triplicate values are averaged. The stability is expressed in percent of the initial value at t=0. (tx/t0×100). By using the TREND function of EXCEL (Microsoft Office 2003) T1/2 were determined.

Series [2] has as its system human red blood cells (hRBC). It counts as cell-based. Conditions: red cells of human, 1 h. As for the experimental part: The peptides were tested for their hemolytic activity against human red blood cells (hRBC). Fresh hRBC were washed four times with phosphate buffered saline (PBS) and centrifuged for 10 min at 3000×g. Compounds (100 μM) were incubated with 20% hRBC (v/v) for 1 h at 37° C. and shaking at 300 rpm. The final erythrocyte concentration was approximately 0.9×10^9 cells/mL. A value of 0% and 100% cell lysis, respectively, was determined by incubation of hRBC in the presence of PBS containing 0.001% acetic acid and 2.5% Triton X-100 in H2O, respectively. The samples were centrifuged, the supernatants were 8-fold diluted in PBS buffer and the optical densities (OD) were measured at 540 nm. The 100% lyses value (OD540H2O) gave an OD540 of approximately 0.5-1.0.
Percent hemolysis was calculated as follows: (OD540peptide/OD540H2O)×100%.

Series [3] concerns the target T1, CXCR4 receptor (Homo sapiens, UniProt P61073).
T1 construct: CXCR4 natively expressing non-adherent cells; endogenous in cells; host or cells: Namalwa cells (ATCC CRL-1432)
As to the kind of experiment: Chemotactic assay (cell migration assay), Namalwa cells, SDF-1 gradient. The format is cell-based. How it is done:
Namalwa cells (CXCR4 natively expressing non-adherent cells, ATCC CRL-1432) were cultured in RPM11640 plus 10% FBS, and pen/strept. HELA cells were maintained in RPMI1640 plus 10% FBS, pen/strept and 2 mM L-glutamine. Cos-7 cells were grown in DMEM medium with […] glucose supplemented with 10% FCS, pen/strept and 2 mM L-glutamine. All cell lines were grown at 37° C. at 5% CO2. Cell media, media supplements, PBS-buffer, HEPES, antibiotic/antimycotic, pen/strept, non essential amino acid, L-glutamine, β-mercaptoethanol and sera were purchased from Gibco (Pailsey, UK). All fine chemicals were supplied by Merck (Darmstadt, Germany).
The chemotactic response of Namalwa cells (ATCC CRL-1432) to a gradient of stromal cell-derived factor 1α (SDF-1) was measured using a modified Boyden chamber chemotaxis system (ChemoTx; Neuroprobe). […] Migrated cells were transferred using a “funnel” adaptor to a receiving 96-well plate and the cell number was determined by using the CyQuant™ NF cell proliferation assay (Invitrogen) based on the measurement of cellular DNA content via fluorescent dye binding. […] After incubation for 0.5 h at room temperature the plate was sealed and the fluorescence intensity of each sample was measured by using a Wallac 1420 VICTOR^2™ plate reader (PerkinElmer) with excitation at 485 nm and emission detection at 535 nm. […]

T1 sequence (P61073 whole entry): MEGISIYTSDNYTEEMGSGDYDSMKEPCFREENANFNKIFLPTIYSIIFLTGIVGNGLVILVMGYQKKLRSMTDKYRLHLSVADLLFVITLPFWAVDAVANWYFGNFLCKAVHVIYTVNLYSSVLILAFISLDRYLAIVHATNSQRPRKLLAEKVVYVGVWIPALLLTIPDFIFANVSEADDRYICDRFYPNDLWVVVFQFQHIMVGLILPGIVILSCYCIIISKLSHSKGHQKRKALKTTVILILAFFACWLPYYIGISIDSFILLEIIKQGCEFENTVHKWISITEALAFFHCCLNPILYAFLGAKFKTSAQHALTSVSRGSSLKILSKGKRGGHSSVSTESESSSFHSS

As for `CC(C)NCCCC[C@@H]1NC(=O)[C@H](CCC(N)=O)NC(=O)[C@H](Cc2ccc(O)cc2)NC(=O)[C@@H]2CSSC[C@H](NC(=O)[C@H](Cc3ccc(O)cc3)NC(=O)[C@H](Cc3c[nH]cn3)NC(=O)[C@H](Cc3ccc(O)cc3)NC(=O)[C@@H]3CCCN3C(=O)[C@@H](CCCCNC(C)C)NC1=O)C(=O)N[C@@H](CO)C(=O)N[C@@H](C)C(=O)N1CCC[C@@H]1C(=O)N[C@@H](CCCNC(C)C)C(=O)N[C@@H](CCCNC(=N)N)C(=O)N[C@@H](Cc1ccc(O)cc1)C(=O)N2` [Ex. 1, cyclo(-Tyr^1-His^2-Tyr^3-Cys^4-Ser^5-Ala^6-^DPro^7-Orn(iPr)^8-Arg^9-Tyr^10-Cys^11-Tyr^12-Gln^13-Lys(iPr)^14-^DLys(iPr)^15-Pro^16-), disulfide bond between Cys^4 and Cys^11] (cyclo(A[dP][Orn(iPr)]RYCYQ[Lys(iPr)][dLys(iPr)]PYHYCS); disulfide 6-15), in series [1], the “human pl. T1/2” value is 24 h and the remaining at 24 h, 10 μM was found to be 100%. In series [2], the “Hemolysis at 100 μM” value stood at 1.0%. In series [3], the IC50 is 0.17 ± 0.1 nM.

As for `CC(C)NCCCC[C@@H]1NC(=O)[C@H](CCC(N)=O)NC(=O)[C@H](Cc2ccc(O)cc2)NC(=O)[C@@H]2CSSC[C@H](NC(=O)[C@H](Cc3ccc(O)cc3)NC(=O)[C@H](Cc3c[nH]cn3)NC(=O)[C@H](Cc3ccc(O)cc3)NC(=O)[C@@H]3CCCN3C(=O)[C@H]3CCCN3C1=O)C(=O)N[C@@H](CO)C(=O)NC1(CC1)C(=O)N1CCC[C@@H]1C(=O)N[C@@H](CCCNC(C)C)C(=O)N[C@@H](CCCNC(=N)N)C(=O)N[C@@H](Cc1ccc(O)cc1)C(=O)N2` [Ex. 2, cyclo(-Tyr^1-His^2-Tyr^3-Cys^4-Ser^5-Acc^6-^DPro^7-Orn(iPr)^8-Arg^9-Tyr^10-Cys^11-Tyr^12-Gln^13-Lys(iPr)^14-^DPro^15-Pro^16-), disulfide bond between Cys^4 and Cys^11] (cyclo(YHYCS[Ac3c][dP][Orn(iPr)]RYCYQ[Lys(iPr)][dP]P); disulfide 4-11), in series [1], the “human pl. T1/2” value came to 24 h and the remaining at 24 h, 10 μM came to 87%. Besides, the “Hemolysis at 100 μM” value in series [2] was determined as 1.0%. The IC50 in series [3] stood at 0.32 ± 0.1 nM.

The term IC50 denotes the concentration at which inhibition is half-maximal.
